Data on 21 compounds can be found in US20230174484A1, “ANTAGONISTS OF GPR39 PROTEIN” (Oregon Health & Science University, priority 2020, published 2023).

“Also recorded” adds a separate entry of the source. Some results are limits rather than exact numbers.

Test [1] concerns wild-type mice, left coronary artery occlusion/reperfusion. The test can be described thus: Infarct size after left coronary artery occlusion and reperfusion in mice. The conditions noted are these: WT mice, single dose 15 min after occlusion, 45 min occlusion, 2 hr reperfusion, versus vehicle. In kind it is in vivo, mouse. As for the experimental part: FIG. 3A depicts the timeline of experimental design. EXAMPLE 34 was given 15 min after left coronary occlusion as a single dose during a 45 min occlusion followed by 2 hr of reperfusion.
Infarct size in both FIG. 3C and FIG. 3D is expressed as a percent of AAR defined by Evans Blue. Summary data are depicted to the right of actual images from single representative animals.
The role of pericytes in tissue necrosis following coronary occlusion was examined (FIG. 3A).

In the next test the target is T1, human GPR39 receptor (Homo sapiens, UniProt O43194).
T1 construct: PC3 Cells, Expressing the Endogenous Human GPR39 Receptor; endogenous in cells; host or cells: PC3 (human prostate adenocarcinoma) cells
T1 sequence (O43194 1-453): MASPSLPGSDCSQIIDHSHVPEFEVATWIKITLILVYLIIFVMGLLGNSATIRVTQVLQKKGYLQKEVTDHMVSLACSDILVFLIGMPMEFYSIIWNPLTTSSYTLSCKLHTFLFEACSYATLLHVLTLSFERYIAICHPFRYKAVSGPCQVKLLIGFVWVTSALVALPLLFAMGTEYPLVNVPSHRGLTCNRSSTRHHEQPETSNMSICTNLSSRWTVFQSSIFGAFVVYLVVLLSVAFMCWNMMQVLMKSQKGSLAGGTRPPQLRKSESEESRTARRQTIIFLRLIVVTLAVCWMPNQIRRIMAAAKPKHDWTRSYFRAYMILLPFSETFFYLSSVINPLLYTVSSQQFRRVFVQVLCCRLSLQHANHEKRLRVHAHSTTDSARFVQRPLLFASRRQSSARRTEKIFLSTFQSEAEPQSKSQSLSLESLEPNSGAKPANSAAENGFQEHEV
The test can be described thus: Measurement of intracellular calcium response in PC3 cells (FLIPR), antagonism of the C3 agonist response. The conditions noted are these: functional pKi (modified Cheng-Prusoff), inhibition of the C3 (TC-G 1008) response at EC90, 30 μM ZnCl2, read-out: fpKi activity. Type of test: cell-based. A digest of the protocol: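 PC3 cells with endogenous human GPR39 were loaded with Calcium-6 and read by FLIPR, with compounds tested in buffer with 30 μM final ZnCl2 and 0.32% DMSO. Peak Ca2+ signal was scored as % inhibition of the EC90 C3 response, fitted by four-parameter logistic. Functional pKi was derived via the modified Cheng-Prusoff equation.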

Test [2] has as its system spontaneously hypertensive rat (SHR). Kind of test: Acute intravenous effect on blood pressure in the spontaneously hypertensive rat. In kind it is in vivo. The settings on record: for BP reduction, percentage of pre-administration baseline: lowest value over 10 min, isoflurane anaesthesia. As for the experimental part:
Decrease in BP was expressed as a percentage of baseline BP (*p<0.05).
The effect of acute intravenous administration of EXAMPLE 34 on BP in the spontaneously hypertensive rat (SHR) was determined. […] At 10 mg/kg, BP was reduced by 15%, and at 25 mg/kg, the reduction exceeded 20% of pre-administration baseline. EXAMPLE 34 was administered slowly via bolus injections through the jugular vein in a vehicle consisting of 100% PEG 400, and the change in BP after administration (lowest value over 10 min) was normalized to pre-administration baseline. This was the first proof of principle that pharmacological inhibition of GPR39 reduced BP acutely in a well-established animal model of hypertension.

Test [3] has as its system wild-type mice, left coronary artery occlusion/reperfusion. The test can be described thus: No reflow after coronary occlusion and reperfusion in mice (Thioflavin S / Evans Blue). In kind it is in vivo, mouse. The settings on record: WT mice, 1.5 mg/kg i.v. 15 min after occlusion, 45 min occlusion, 2 hr reperfusion, versus vehicle. As for the experimental part: FIGS. 4A-4D depict no reflow data from WT, GPR39 KO, and EXAMPLE 34 mice. Thioflavin-S and Evans Blue were injected ante-mortem and measurement of no reflow (area without Evans Blue on the right panel). […] EXAMPLE 34 was given 15 min after coronary occlusion which lasted a total of 45 min followed by 2 hour reperfusion. The role of pericytes was examined in no reflow after reperfusion in a separate group of animals since infarct size and no reflow post-mortem cciuid not be measured in the same animals, Thioflavin S, a perfusion marker, was injected into the left coronary artery after reperfusion. Thereafter, the left coronary artery was briefly re-occluded and 0.2 ml Evan's blue (1%) injected. The heart was then excised, transversely sliced into 5-6 pieces and photographed under UV light (under which Thioflavin S fluoresces blue) to identify the area of no reflow and under standard lighting to identify the AAR, and the no reflow zone expressed as a percent of the AAR.

In the case of `O=C(Nc1ccc(C(=O)N2CCN(c3ncnc4ccsc34)CC2)c(N2CCCCCC2)c1)C1CC1` [EXAMPLE 34, N-[3-(azepan-1-yl)-4-(4-thieno[3,2-d]pyrimidin-4-ylpiperazine-1-carbonyl)phenyl]Cyclopropanecarboxamide], the “Infarct size/area at risk (AAR) ratio” value in test [1] is given as “significantly smaller; also recorded: significant reduction in infarct size”. On human GPR39 receptor, the Ki is 1.26 to 6.31 µM. The “BP reduction, percentage of pre-administration baseline” value in test [2] (10 mg/kg i.v. bolus) is given as 15%; in test [2] (25 mg/kg i.v. bolus), “exceeded 20%”. For the same compound, the “Effect on BP in SHR” value in test [2] (i.v., concentrations higher than 10 mg/kg) is reported as “significantly reduced BP”. Also, the “No reflow zone / AAR ratio” value in test [3] was “negligible no reflow zones; also recorded: significant reduction in no reflow/AAR ratio”.
For `O=C(Nc1ccc(C(=O)N2CCS(=O)(=O)CC2)c(N2CCCC(C(F)(F)F)C2)c1)C1CC1` (single isomer, unassigned) [Example 185b, N-[4-(1,1-dioxo-1,4-thiazinane-4-carbonyl)-3-[3R or 3S-(trifluoromethyl)piperidin-1-yl]phenyl]cyclopropanecarboxamide], the Ki on human GPR39 receptor is at most 0.0501 µM.
Turning to `CN1CCN(C(=O)c2ccc(NC(=O)C3CC3)cc2N2CCC(C(F)(F)F)C2)C(c2ccccc2)C1` (single isomer, unassigned) [Example 199b, (2S, 3R) or (2R, 3S) or (2R, 3R) or (2S, 3S) N-[4-(4-methyl-2-phenylpiperazine-1-carbonyl)-3-[3-(trifluoromethyl)pyrrolidin-1-yl]phenyl]cyclopropanecarboxamide], the Ki at human GPR39 receptor lay within 0.316 to 1 µM.
On the same count and under the same terms, as for `CC1CC(C)CN(c2cc(NC(=O)C3CC3)ccc2C(=O)N2CCN(C)CC2c2ccccc2)C1` (single isomer, unassigned) [Example 68a, Syn 2R or 2S N-[3-[3,5-dimethylpiperidin-1-yl]-4-(4-methyl-2-phenylpiperazine-1-carbonyl)phenyl] cyclopropanecarboxamide], the figure is at most 0.0501 µM.
For the compound `O=C(Nc1ccc(C(=O)N2CCN(Cc3ccon3)CC2)c(N2CCCCCC2)c1)C1CC1` [Example 22, N-(3-(azepan-1-yl)-4-(4-(isoxazol-3-ylmethyl)piperazine-1-carbonyl)phenyl) cyclopropanecarboxamide], the Ki on human GPR39 receptor lay within 0.0631 to 0.251 µM.
As to `CCCN1CCN(C(=O)c2ccc(NC(=O)C3CC3)cc2N2CCc3ccccc3C2)CC1` [Example 18, N-(3-(3,4-dihydroisoquinolin-2(1H)-yl)-4-(4-propylpiperazine-1-carbonyl)phenyl)cyclopropane carboxamide], the Ki on human GPR39 receptor was in the range of 0.316 to 1 µM.
Same read-out and setting: to `O=C(Nc1ccc(C(=O)N2CCC(F)CC2)c(N2CCCC2)c1)C1CC1` [Example 168, N-[4-(4-fluoropiperidine-1-carbonyl)-3-pyrrolidin-1-ylphenyl]cyclopropanecarboxamide] belongs 0.316 to 1 µM; to `CN1CCN(C(=O)c2ccc(NC(=O)C3CC3)cc2N2CC3(COC3)C2)C(c2ccccc2)C1` (centres unmarked) [Example 204, N-[4-(4-methyl-2-phenylpiperazine-1-carbonyl)-3-(2-oxa-6-azaspiro[3.3]heptan-6-yl)phenyl]cyclopropanecarboxamide], 0.316 to 1 µM.
Consider `CCCN1CCN(C(=O)c2ccc(NC(=O)C3CC3(F)F)cc2N2CCCCCC2)CC1` (centres unmarked) [Example 92], for which the Ki at human GPR39 receptor lay within 0.316 to 1 µM.
As for `CCCN1CCN(C(=O)c2ccc(NC(=O)C3CC3)cc2-n2ccc(C)c2)CC1` [Example 9, N-[3-(3-methylpyrrol-1-yl)-4-(4-propylpiperazine-1-carbonyl)phenyl] Cyclopropanecarboxamide], the Ki on human GPR39 receptor lay in the range of 1.26 to 6.31 µM.
For the compound `CCCN1CCN(C(=O)c2ccc(NC(=O)C3CC3)cc2N2CCC(F)(F)CC2)CC1` [Example 7, N-(3-(4,4-difluoropiperidin-1-yl)-4-(4-propylpiperazine-1-carbonyl)phenyl) cyclopropanecarboxamide], the Ki on human GPR39 receptor is 1.26 to 6.31 µM.
Take `CC1CCN(c2cc(NC(=O)C3CC3)ccc2C(=O)N2CCC(C(F)(F)F)CC2)C1` (racemic) [Example 63c, N-[3-(3-methylpyrrolidin-1-yl)-4-[4-(trifluoromethyl)piperidine-1-carbonyl]phenyl]cyclopropanecarboxamide]: the Ki at human GPR39 receptor was at most 0.0501 µM.
Same read-out and setting: as for `CN1CCN(C(=O)c2ccc(NC(=O)C3CC3)cc2N2CCC(C(F)(F)F)C2)C(c2ccccc2)C1` (single isomer, unassigned) [Example 199a, (2S, 3R) or (2R, 3S) or (2R, 3R) or (2S, 3S) N-[4-(4-methyl-2-phenylpiperazine-1-carbonyl)-3-[3-(trifluoromethyl)pyrrolidin-1-yl]phenyl]cyclopropanecarboxamide], the figure is at most 0.0501 µM; as for `CN1CCN(C(=O)c2ccc(NC(=O)C3CC3)cc2N2CCCC2)C(c2ccccc2F)C1` (single isomer, unassigned) [Example 84a, N-[4-[2-(2-fluorophenyl)-4-methylpiperazine-1-carbonyl]-3-pyrrolidin-1-ylphenyl]cyclopropanecarboxamide], 0.0631 to 0.251 µM; as for `CC1CCN(c2cc(NC(=O)C3CC3)ccc2C(=O)N2CCN(C)CC2c2ccccc2)C1` (single isomer, unassigned) [Example 64a, (2S, 3R) or (2R, 3S) or (2R, 3R) or (2S, 3S) N-[4-(4-methyl-2-phenylpiperazine-1-carbonyl)-3-(3-methylpyrrolidin-1-yl)phenyl] cyclopropanecarboxamide], at most 0.0501 µM.
Same read-out and setting: as for `O=C(NCc1cccnc1)c1ccc(NC(=O)C2CC2)cc1N1CCCCCC1` [Example 44, 2-(azepan-1-yl)-4-(cyclopropanecarbonylamino)-N-(pyridin-3-ylmethyl)benzamide], the figure is 1.26 to 6.31 µM.
As to `CN1CCN(C(=O)c2ccc(NC(=O)C3CC3)cc2N2CCCCCC2)C(C(F)(F)F)C1` (centres unmarked) [Example 75, N-[3-(azepan-1-yl)-4-[4-methyl-2-(trifluoromethyl)piperazine-1-carbonyl]phenyl]Cyclopropanecarboxamide], the Ki at human GPR39 receptor was in the range of 0.316 to 1 µM.
For the compound `O=C(Nc1ccc(C(=O)N2CCS(=O)(=O)CC2)c(-n2ccc(C(F)(F)F)n2)c1)C1CC1` [Example 181, N-[4-(1,1-dioxo-1,4-thiazinane-4-carbonyl)-3-[3-(trifluoromethyl)pyrazol-1-yl]phenyl]cyclopropanecarboxamide], the Ki at human GPR39 receptor is at most 0.0501 µM.
For `CCCN1CCN(C(=O)c2ccc(NC(=O)C3CC3)cc2-n2ccc(C(F)(F)F)n2)CC1` [Example 158, N-[4-(4-propylpiperazine-1-carbonyl)-3-[3-(trifluoromethyl)pyrazol-1-yl]phenyl]cyclopropanecarboxamide], the Ki at human GPR39 receptor was at most 0.0501 µM.
Consider `CCCN1CCN(C(=O)c2ccc(NC(=O)C3CC3)cc2N2CCC(c3ccccc3)C2)CC1` (centres unmarked) [Example 5, N-(3-(3-phenylpyrrolidin-1-yl)-4-(4-propylpiperazine-1-carbonyl)phenyl) cyclopropanecarboxamide], for which, on human GPR39 receptor, the Ki lay in the range of 0.316 to 1 µM.
As for `C[C@@H]1C[C@H](C)CN(c2cc(NC(=O)C3CC3)ccc2-c2nnc(Sc3ccccc3)n2C)C1` [Example 114b, N-[3-(3,5-dimethylpiperidin-1-yl)-4-(4-methyl-5-phenylsulfanyl-1,2,4-triazol-3-yl)phenyl]cyclopropanecarboxamide], at human GPR39 receptor, the Ki is 0.0631 to 0.251 µM.
